≈ marks a conversion by molar mass, not a printed value.
Tested on: Vaccinia virus
Assay: Minimum inhibitory concentration required to reduce vaccinia virus induced cytopathogenicity by 50% in primary rabbit kidney cells (PRK)
Type: functional
Settings: Orthopoxvirus vaccinia

For `COC(=O)c1ccc([N+](=O)[O-])n1C`, which MIC is on record?
The MIC was over 400 mg/L.

For `C[C@H](NC(=O)c1cc(NC(=O)c2cc([N+](=O)[O-])cn2C)cn1C)C(=O)N[C@@H](C)C(=O)N[C@@H](C)C(=O)OC(C)(C)C`, which MIC is on record?
Its MIC is over 100 mg/L.

Which MIC does the source give for `Cn1cc(NC(=O)CNC(=N)N)cc1C(=O)NCCCNCCCCN` here?
The MIC was over 400 mg/L.

With `Cn1c(C(=O)NCCC(=N)N)ccc1[N+](=O)[O-]` as the molecule, how does the MIC read?
The MIC was over 100 mg/L.

With `CC(NC(=O)C(C)NC(=O)c1cc(NC(=O)c2cc(NC(=O)CNC(=N)N)cn2C)cn1C)C(=O)O` (centres undefined) as the molecule, how does the MIC read?
Its MIC is over 400 mg/L.

Which MIC does the source give for `Cn1cc(NC(=O)c2cc(NC(=O)CNC(=N)N)cn2C)cc1C(=O)NCCCNCCCCN` here?
Its MIC is over 200 mg/L.

With `Cn1cc(NC(=O)c2cc([N+](=O)[O-])cn2C)cc1C(=O)O` as the molecule, how does the MIC read?
Its MIC is over 400 mg/L.

How did the MIC turn out when `C[C@H](NC(=O)[C@H](C)NC(=O)[C@H](C)NC(=O)c1cc(NC(=O)c2cc(NC(=O)CNC(=N)N)cn2C)cn1C)C(=O)O` was run?
The MIC was over 400 mg/L.

With `CC(NC(=O)c1cc(NC(=O)c2cc(NC(=O)CNC(=N)N)cn2C)cn1C)C(=O)OC(C)(C)C` (centres undefined) as the molecule, how does the MIC read?
Its MIC is 150 mg/L (≈ 307 µM).

For `Nc1ncnc2c1ncn2C[C@H](O)CO` [(S)-DHPA], which MIC is on record?
Its MIC is 70 mg/L (≈ 335 µM).

Which MIC does the source give for `Cn1cc([N+](=O)[O-])cc1C(=O)NCCC(=N)N` here?
The MIC was over 200 mg/L.

With `Cn1c(C(=O)NCCC#N)ccc1[N+](=O)[O-]` as the molecule, how does the MIC read?
Its MIC is over 200 mg/L.

For `COC(=O)c1cc(NC(=O)c2cc([N+](=O)[O-])cn2C)cn1C`, which MIC is on record?
Its MIC is over 10 mg/L.

How did the MIC turn out when `C[C@H](NC(=O)c1cc(NC(=O)c2cc(NC(=O)CNC(=N)N)cn2C)cn1C)C(=O)N[C@@H](C)C(=O)N[C@@H](C)C(=O)OC(C)(C)C` was run?
The MIC was over 100 mg/L.

`Cn1cc(NC(=O)c2cc(NC(=O)CNC(=N)N)cn2C)cc1C(=O)NCCC(=N)N` [NETROPSIN] was tested. Which MIC did it give?
The MIC was 70 mg/L (≈ 163 µM).

With `CC(NC(=O)c1cc(NC(=O)c2cc([N+](=O)[O-])cn2C)cn1C)C(=O)OC(C)(C)C` (centres undefined) as the molecule, how does the MIC read?
The MIC was over 40 mg/L.

For `Cn1cc([N+](=O)[O-])cc1C(=O)NCCCNCCCCN`, which MIC is on record?
The MIC was over 200 mg/L.

`CC(NC(=O)c1cc(NC(=O)c2cc([N+](=O)[O-])cn2C)cn1C)C(=O)NC(C)C(=O)OC(C)(C)C` (centres undefined) was tested. Which MIC did it give?
Its MIC is over 100 mg/L.

Which MIC does the source give for `Cn1cc(NC(=O)c2cc([N+](=O)[O-])cn2C)cc1C(=O)NCCC#N` here?
Its MIC is over 10 mg/L.

How did the MIC turn out when `CC(NC(=O)c1cc(NC(=O)c2cc(NC(=O)CNC(=N)N)cn2C)cn1C)C(=O)NC(C)C(=O)OC(C)(C)C` (centres undefined) was run?
Its MIC is over 200 mg/L.

How did the MIC turn out when `Cn1c(C(=O)O)ccc1[N+](=O)[O-]` was run?
The MIC was over 200 mg/L.

Which MIC does the source give for `Nc1nccc2c1ncn2[C@@H]1C[C@H](CO)[C@@H](O)[C@H]1O` [3-DEAZAARISTEROMYCIN A] here?
The MIC was 2 mg/L (≈ 7.57 µM).

Which MIC does the source give for `CC(NC(=O)c1cc(NC(=O)c2cc(NC(=O)CNC(=N)N)cn2C)cn1C)C(=O)O` (centres undefined) here?
Its MIC is over 200 mg/L.

`Cn1cc([N+](=O)[O-])cc1C(=O)NCCC#N` was tested. Which MIC did it give?
Its MIC is over 200 mg/L.

`NC(=O)c1ncn([C@@H]2O[C@H](CO)[C@@H](O)[C@H]2O)n1` [RIBAVIRIN] was tested. Which MIC did it give?
The MIC was 2 mg/L (≈ 8.19 µM).

With `Cn1cc(NC(=O)c2cc([N+](=O)[O-])cn2C)cc1C(=O)NCCC(=N)N` as the molecule, how does the MIC read?
Its MIC is over 100 mg/L.

`Nc1ncnc2c1ccn2[C@@H]1O[C@H](CO)[C@@H](O)[C@H]1O` [TUBERCIDIN] was tested. Which MIC did it give?
The MIC was 0.07 mg/L (≈ 0.263 µM).

Which MIC does the source give for `Cn1cc([N+](=O)[O-])cc1C(=O)O` here?
The MIC was over 400 mg/L.

Which MIC does the source give for `Cn1cc(NC(=O)c2cc([N+](=O)[O-])cn2C)cc1C(=O)NCCCNCCCCN` here?
The MIC was over 200 mg/L.
